Measurements taken from PubChem BioAssay (NCI).
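Where inhibition never reached the appropriate level, the endpoint shown equals the highest concentration tested. Otherwise, values were interpolated linearly from a five-concentration, 48-hour dose response in 96-well plates. GI50 = concentration required for 50% inhibition of growth. The concentration for full growth arrest is given as TGI.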

Tests used:
Experiment in all cases: inhibition of tumour cell growth, NCI panel, 48 h
[1] = system: HCT-116 colon
[2] = system: HCT-15 colon
[3] = system: NCI-H460 lung
[4] = system: NCI-H522 lung
[5] = system: OVCAR-3 ovarian
[6] = system: OVCAR-5 ovarian
[7] = system: SF-539 CNS
[8] = system: SN12C renal
[9] = system: SNB-75 CNS
[10] = system: U251 CNS

CC1=NN(c2ccccc2)C(=O)C1N=Nc1ccc([As](=O)(O)O)c(O)c1 (stereo not given)
TGI [1]: > 100 µM
TGI [2]: > 100 µM
TGI [3]: > 100 µM
TGI [4]: > 100 µM
TGI [5]: > 100 µM
TGI [6]: > 100 µM
TGI [7]: > 100 µM
TGI [8]: > 100 µM
TGI [9]: > 100 µM
TGI [10]: > 100 µM

Cn1cc(-c2nc(-c3c[nH]c4ncccc34)cs2)c2cc(F)ccc21
GI50 [1]: 2.56 µM
TGI [1]: 7.22 µM
GI50 [2]: 2.88 µM
TGI [2]: > 45 µM
GI50 [3]: 1.89 µM
TGI [3]: 6.72 µM
GI50 [4]: 2.7 µM
TGI [4]: 9.89 µM
GI50 [5]: 3.02 µM
TGI [5]: 8.25 µM
GI50 [6]: 1.25 µM
TGI [6]: 6.63 µM
GI50 [7]: 3.8 µM
TGI [7]: 15.3 µM
GI50 [8]: 3.47 µM
TGI [8]: 15.3 µM
GI50 [9]: 2.78 µM
TGI [9]: 10.1 µM
GI50 [10]: 2.43 µM
TGI [10]: 8.08 µM

CCOc1cccc(/C=N/NC(=O)c2ccc(Nc3ccnc(C(F)(F)F)c3)cc2)c1O
GI50 [1]: 0.367 µM
TGI [1]: > 71.5 µM
GI50 [2]: 0.515 µM
TGI [2]: > 100 µM
GI50 [3]: 0.492 µM
TGI [3]: 13.6 µM
GI50 [4]: 16.9 µM
TGI [4]: > 82.8 µM
GI50 [5]: 0.298 µM
TGI [5]: 28 µM
GI50 [6]: 7.18 µM
TGI [6]: > 100 µM
GI50 [7]: 1.1 µM
TGI [7]: 11.6 µM
GI50 [8]: 2.45 µM
TGI [8]: > 100 µM
GI50 [9]: 3.34 µM
TGI [9]: > 67.5 µM
GI50 [10]: 0.906 µM
TGI [10]: > 58 µM

C[C@@H]1CN(C(=O)c2ccc(NC(=O)c3cc(O[C@H](C)c4c(Cl)ccc(F)c4Cl)c(N)nn3)cc2)C[C@H](C)N1
GI50 [1]: 1.46 µM
TGI [1]: 10.7 µM
GI50 [2]: 3.92 µM
TGI [2]: 15.1 µM
GI50 [3]: 3.1 µM
TGI [3]: 13.7 µM
GI50 [4]: 3.1 µM
TGI [4]: 12.2 µM
GI50 [5]: 6.44 µM
TGI [5]: 19 µM
GI50 [6]: 2.76 µM
TGI [6]: 17.6 µM
GI50 [7]: 2.21 µM
TGI [7]: 5.07 µM
GI50 [8]: 2.41 µM
TGI [8]: 13.6 µM
GI50 [9]: 2.8 µM
TGI [9]: 11.1 µM
GI50 [10]: 3.4 µM
TGI [10]: 12.9 µM

O=C1CC(c2ccc(N3CCOCC3)cc2)(c2ccsc2)NC(=O)C1Sc1ccccc1Cl (stereo not given)
GI50 [1]: 25.4 µM
TGI [1]: > 100 µM
GI50 [2]: 56.7 µM
TGI [2]: > 100 µM
GI50 [3]: 13.5 µM
TGI [3]: > 100 µM
GI50 [4]: 13.8 µM
TGI [4]: > 100 µM
GI50 [5]: 67 µM
TGI [5]: > 100 µM
GI50 [6]: > 100 µM
TGI [6]: > 100 µM
GI50 [7]: 56.4 µM
TGI [7]: > 100 µM
GI50 [8]: 10.1 µM
TGI [8]: > 100 µM
GI50 [9]: 54.9 µM
TGI [9]: > 100 µM
GI50 [10]: 19.5 µM
TGI [10]: > 100 µM

C[n+]1c(/C=C\c2ccc(Cl)cc2)ccc2ccccc21
GI50 [1]: 12.6 µM
TGI [1]: > 100 µM
GI50 [2]: 53.2 µM
TGI [2]: > 100 µM
GI50 [3]: 32.7 µM
TGI [3]: > 100 µM
GI50 [4]: 12.4 µM
TGI [4]: 89.4 µM
GI50 [5]: 7.34 µM
TGI [5]: 31.4 µM
GI50 [6]: 4.36 µM
TGI [6]: > 100 µM
GI50 [7]: 15.9 µM
TGI [7]: 92.2 µM
GI50 [8]: 4.13 µM
TGI [8]: 84 µM
GI50 [9]: 23.2 µM
TGI [9]: > 100 µM
GI50 [10]: 3.7 µM
TGI [10]: > 100 µM

Cn1cncc1[C@@](N)(c1ccc(Cl)cc1)c1ccc2c(c1)c(-c1cccc(Cl)c1)cc(=O)n2C
GI50 [1]: 1.48 µM
TGI [1]: 7.57 µM
GI50 [2]: 2.08 µM
TGI [2]: 11.9 µM
GI50 [3]: 1.97 µM
TGI [3]: 11.9 µM
GI50 [4]: 0.655 µM
TGI [4]: 5.05 µM
GI50 [5]: 2.55 µM
TGI [5]: 7.86 µM
GI50 [6]: 5.59 µM
TGI [6]: 19.3 µM
GI50 [7]: 2.81 µM
TGI [7]: 9.47 µM
GI50 [8]: 2.48 µM
TGI [8]: 14.9 µM
GI50 [9]: 4.68 µM
TGI [9]: 18.9 µM
GI50 [10]: 1.4 µM
TGI [10]: 7.49 µM

CCC[CH2][Sn]1([CH2]CCC)[O]C(=O)c2cc(I)cc(I)c2[O]1
GI50 [1]: 1.42 µM
TGI [1]: 2.72 µM
GI50 [2]: 1.28 µM
TGI [2]: 2.93 µM
GI50 [3]: 1.45 µM
TGI [3]: 2.76 µM
GI50 [4]: 0.143 µM
TGI [4]: 0.323 µM
GI50 [5]: 1.42 µM
TGI [5]: 2.77 µM
GI50 [6]: 1.99 µM
TGI [6]: 3.48 µM
GI50 [7]: 1.16 µM
TGI [7]: 2.44 µM
GI50 [8]: 1.42 µM
TGI [8]: 2.96 µM
GI50 [9]: 1.04 µM
TGI [9]: 2.25 µM
GI50 [10]: 0.882 µM
TGI [10]: 2.1 µM

COc1cc(-c2nc(Nc3nc4ccccc4[nH]3)nc(N)c2C#N)cc(OC)c1OC
GI50 [1]: 4.52 µM
TGI [1]: 25.8 µM
GI50 [2]: 18.1 µM
TGI [2]: > 100 µM
GI50 [3]: 1.77 µM
TGI [3]: > 54.2 µM
GI50 [4]: 0.45 µM
TGI [4]: 3.61 µM
GI50 [5]: 0.286 µM
TGI [5]: 3.61 µM
GI50 [6]: 27.8 µM
TGI [6]: > 86.4 µM
GI50 [7]: 10.7 µM
TGI [7]: 36.2 µM
GI50 [8]: 29.1 µM
TGI [8]: > 100 µM
GI50 [9]: 0.308 µM
TGI [9]: 49.9 µM
GI50 [10]: 10.8 µM
TGI [10]: 72.4 µM

COc1cccc(C2c3cc4c(cc3OC(C)(O)C2C)OCO4)c1O (stereo not given)
TGI [1]: 19.7 µM
TGI [2]: 27.8 µM
TGI [3]: 30.6 µM
TGI [4]: 5.6 µM
TGI [5]: 8.48 µM
TGI [6]: > 100 µM
TGI [7]: 8.65 µM
TGI [8]: 62.3 µM
TGI [9]: 30.8 µM
TGI [10]: 21.1 µM

CC1=CC(=NC(=O)CBr)C=C/C1=N\S(=O)(=O)c1ccccc1
GI50 [1]: 2.05 µM
TGI [1]: 4.97 µM
GI50 [2]: 1.99 µM
TGI [2]: 4.67 µM
GI50 [3]: 15.1 µM
TGI [3]: 34 µM
GI50 [4]: 1.61 µM
TGI [4]: 3.72 µM
GI50 [5]: 2.04 µM
TGI [5]: 4.47 µM
GI50 [6]: 2.65 µM
TGI [6]: 6.86 µM
GI50 [7]: 3.49 µM
TGI [7]: 12 µM
GI50 [8]: 1.83 µM
TGI [8]: 3.59 µM
GI50 [9]: 13.5 µM
TGI [9]: 30.4 µM
GI50 [10]: 3.37 µM
TGI [10]: 12.2 µM

N#C/C(=C\c1ccc(-c2ccc(Cl)cc2)o1)C(=O)Nc1ncc(Cc2ccc(Cl)cc2)s1
GI50 [1]: 1.41 µM
TGI [1]: 3.51 µM
GI50 [2]: 2.3 µM
TGI [2]: > 100 µM
GI50 [3]: 0.983 µM
TGI [3]: 2.46 µM
GI50 [4]: 1.94 µM
TGI [4]: 4.86 µM
GI50 [5]: 1.41 µM
TGI [5]: 3.14 µM
GI50 [6]: 3.73 µM
TGI [6]: > 100 µM
GI50 [7]: 1.66 µM
TGI [7]: 3.84 µM
GI50 [8]: 1.28 µM
TGI [8]: 3.32 µM
GI50 [9]: 1.38 µM
TGI [9]: 3.89 µM
GI50 [10]: 1.09 µM
TGI [10]: 2.43 µM
